Laboratory results reported in PMC5491903, “The Selective Phosphoinoside-3-Kinase p110δ Inhibitor IPI-3063 Potently Suppresses B Cell Survival, Proliferation, and Differentiation” (Frontiers in Immunology, 2017).

What was measured:
[1] = tested on: phosphorylation of ERK1/2 on Thr202/Tyr204 in mouse primary B cells; assay: p-ERK1/2 western blot in αIgM + IL-4 stimulated mouse B cells; format: cell-based
Method: (§1) IPI-3063 is a p110δ selective compound with an IC50 = 0.1 nM in p110δ-specific cell-based assays and cellular IC50 values for the other class I PI3K isoforms are at least 1,000-fold higher (Table 2) ([11]). […] To test the effects of p110γ inhibition, we used AS-252424 compound with a biochemical IC50 = 30 nM for p110γ ([17]). We assessed the effects of both IPI-3063 and IPI-443 on PI3K activity in mouse primary B cells stimulated with αIgM + IL-4, by evaluating phosphorylation of AKT at the serine 473 residue (Figures 1A,C) as well as the phosphorylation of ERK1/2 on Thr202/Tyr204 residues (Figures 1B,C). Cells were treated with a pan-PI3K inhibitor GDC-0941 or with various concentrations of IPI-3063 or IPI-443, or DMSO (0.1%) as the diluent control. Separate cultures were treated with the p110γ inhibitor AS-252424 or its diluent control (0.1% EtOH). MK-2206, an AKT inhibitor, which also reduces AKT S473 phosphorylation, was also used as a control to show ERK1/2 phosphorylation is independent of AKT activity. […]
(§2) Analysis was performed on western blots using ImageJ to measure mean fluorescence intensities of each band. Phospho-AKT S473 and phospho-ERK1/2 signal was normalized with actin measurements and fold change was calculated using the stimulated/no drug control.

[2] = tested on: phosphorylation of AKT at serine 473 in mouse primary B cells; assay: p-AKT (S473) western blot in αIgM + IL-4 stimulated mouse B cells; format: cell-based
Method: as §1, §2

p110γ [3] = biological target: p110γ (Mus musculus, UniProt Q9JHG7); set-up: method as in PMID 16789742; conditions: read-out: biochemical IC50; cited from earlier work
p110γ [4] = biological target: T1, p110γ (Homo sapiens, UniProt P48736); assay: PI3K enzymatic assay (ADP-Glo) with purified enzymes; conditions: purified enzyme, mean ± spread (n), read-out: Biochemical IC50
T1 construct: purchased Millipore 14-558-K
Method: (§3) Human recombinant PI3K-α (cat. no. 14-602-K), -β (cat. no. 14-603-K), -δ (cat. no. 14-604-K), and -γ (cat. no. 14-558-K) were purchased from Millipore. Phosphatidylinositol 4,5 bis phosphate (diC8-PtdIns(4,5)P2) was purchased from Avanti Polar Lipids, Inc. PI3K-α, β, and δ are heterodimers consisting of full length p110α, p110β, or p110δ catalytic subunit and the p85α regulatory subunit. PI3K-γ is a monomer of the p110γ catalytic subunit. Samples of kinase (10 nM—α, β, and δ; 20 nM—γ) were incubated with inhibitor for 30 min at room temperature in reaction buffer (15 mM HEPES pH 7.4, 20 mM NaCl, 1 mM EGTA, 0.02% Tween 20, 10 mM MgCl2, 0.2 mg/mL bovine-γ-globulins) followed by addition of ATP/diC8-PtdIns(4,5)P2 mixture to give final concentrations of 3 mM ATP and 500 µM diC8-PtdIns(4,5)P2. Reactions were incubated at room temperature for 2 h, with PI3K activity assessed via the Promega ADP-Glo Max assay kit (cat. no. V7002) according to the manufacturer’s instruction. Plates were read on Envision plate reader in luminescence mode.

p110δ = biological target: T2, p110δ (Homo sapiens, UniProt O00329); assay: as above; conditions: purified enzyme, mean ± spread (n), read-out: Biochemical IC50
T2 construct: heterodimers consisting of full length p110α, p110β, or p110δ catalytic subunit and the p85α regulatory subunit; purchased Millipore 14-604-K
Method: as §3

p110α = biological target: T3, p110α (Homo sapiens, UniProt P42336); assay: as above; conditions: purified enzyme, mean ± spread (n), read-out: Biochemical IC50
T3 construct: heterodimers consisting of full length p110α, p110β, or p110δ catalytic subunit and the p85α regulatory subunit; purchased Millipore 14-602-K
Method: as §3

p110β = p110β (Homo sapiens, UniProt P42338); assay: isoform-specific cell-based assay, pAKT S473 ELISA; set-up: endogenous in cells; host or cells: 786.0; conditions: read-out: Cellular IC50
Method: Phospho-Akt1 (S473) sandwich ELISA antibody kit (Cell Signaling Technology, cat. no. 7143) was utilized to analyze pAKT signal in cells as described previously by Winkler et al. ([11]) (for data see Table 2). Briefly, SKOV3 and 786.0 cells were seeded into 96-well cell culture-graded plates at a density of […] per 200 µl culture media per well. Raji and Raw264.7 were seeded at the same density in FBS-free media. After overnight incubation at 5% CO2 and 37°C, the cells were treated with inhibitor for 30 min. Raji cells were stimulated with 10 µg/mL anti-human IgM (Jackson ImmunoResearch) for 30 min and Raw264.7 cells with 25 nM C5a (RnD Systems) for 3 min in the presence of inhibitor. SKOV3 and 786.0 cells were not stimulated. Medium was then aspirated and 50 µL/well of ice-cold lysis buffer was added. pAKT level was determined according to the manufacturer’s instruction.

T3 sequence (P42336 whole entry): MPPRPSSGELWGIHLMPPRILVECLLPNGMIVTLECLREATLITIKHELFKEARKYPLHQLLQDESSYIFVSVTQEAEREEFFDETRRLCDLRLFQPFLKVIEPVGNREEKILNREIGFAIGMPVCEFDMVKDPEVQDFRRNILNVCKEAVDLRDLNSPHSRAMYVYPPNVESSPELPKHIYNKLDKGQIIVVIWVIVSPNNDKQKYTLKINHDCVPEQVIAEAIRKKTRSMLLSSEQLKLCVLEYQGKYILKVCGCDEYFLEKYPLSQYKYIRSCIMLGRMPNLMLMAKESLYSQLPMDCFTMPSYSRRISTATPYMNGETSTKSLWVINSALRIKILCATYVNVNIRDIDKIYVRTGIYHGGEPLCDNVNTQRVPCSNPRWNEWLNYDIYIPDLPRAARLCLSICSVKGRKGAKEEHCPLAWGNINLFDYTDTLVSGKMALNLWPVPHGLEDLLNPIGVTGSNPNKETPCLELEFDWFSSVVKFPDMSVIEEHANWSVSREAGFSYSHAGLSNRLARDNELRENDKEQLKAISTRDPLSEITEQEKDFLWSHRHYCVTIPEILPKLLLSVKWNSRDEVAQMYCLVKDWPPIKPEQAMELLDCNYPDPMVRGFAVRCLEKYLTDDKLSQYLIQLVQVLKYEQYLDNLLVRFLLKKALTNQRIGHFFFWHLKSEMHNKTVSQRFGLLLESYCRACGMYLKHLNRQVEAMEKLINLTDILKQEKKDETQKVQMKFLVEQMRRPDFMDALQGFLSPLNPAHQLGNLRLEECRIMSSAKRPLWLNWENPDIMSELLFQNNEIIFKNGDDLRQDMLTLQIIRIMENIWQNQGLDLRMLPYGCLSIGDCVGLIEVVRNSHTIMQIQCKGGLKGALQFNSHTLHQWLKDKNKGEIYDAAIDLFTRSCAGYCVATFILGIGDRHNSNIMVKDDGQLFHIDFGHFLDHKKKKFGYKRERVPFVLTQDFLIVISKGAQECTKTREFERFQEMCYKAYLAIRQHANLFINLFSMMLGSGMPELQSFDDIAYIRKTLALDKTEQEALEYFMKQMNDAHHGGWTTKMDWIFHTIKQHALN
T3 sequence (P27986 whole entry partner): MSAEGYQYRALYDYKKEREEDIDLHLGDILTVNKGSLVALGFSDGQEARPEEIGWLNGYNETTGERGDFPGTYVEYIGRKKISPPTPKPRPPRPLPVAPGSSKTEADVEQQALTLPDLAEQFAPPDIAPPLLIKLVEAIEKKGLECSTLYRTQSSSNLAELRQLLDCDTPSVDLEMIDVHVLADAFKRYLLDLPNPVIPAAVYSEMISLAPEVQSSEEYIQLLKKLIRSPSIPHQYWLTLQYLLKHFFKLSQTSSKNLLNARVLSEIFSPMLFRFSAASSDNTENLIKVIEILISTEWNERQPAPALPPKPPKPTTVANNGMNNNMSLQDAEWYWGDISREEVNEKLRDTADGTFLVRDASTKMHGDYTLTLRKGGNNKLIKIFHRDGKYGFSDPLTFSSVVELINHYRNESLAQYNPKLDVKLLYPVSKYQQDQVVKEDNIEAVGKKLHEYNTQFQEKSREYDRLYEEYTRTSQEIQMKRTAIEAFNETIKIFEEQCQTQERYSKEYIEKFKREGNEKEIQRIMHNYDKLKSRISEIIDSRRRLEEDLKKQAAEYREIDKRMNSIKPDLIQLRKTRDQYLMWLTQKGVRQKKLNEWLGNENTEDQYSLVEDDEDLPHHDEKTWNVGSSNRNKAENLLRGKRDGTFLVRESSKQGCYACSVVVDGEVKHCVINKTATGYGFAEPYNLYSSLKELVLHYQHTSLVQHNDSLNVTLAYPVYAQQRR
Sequence of p110β (P42338 whole entry, canonical isoform): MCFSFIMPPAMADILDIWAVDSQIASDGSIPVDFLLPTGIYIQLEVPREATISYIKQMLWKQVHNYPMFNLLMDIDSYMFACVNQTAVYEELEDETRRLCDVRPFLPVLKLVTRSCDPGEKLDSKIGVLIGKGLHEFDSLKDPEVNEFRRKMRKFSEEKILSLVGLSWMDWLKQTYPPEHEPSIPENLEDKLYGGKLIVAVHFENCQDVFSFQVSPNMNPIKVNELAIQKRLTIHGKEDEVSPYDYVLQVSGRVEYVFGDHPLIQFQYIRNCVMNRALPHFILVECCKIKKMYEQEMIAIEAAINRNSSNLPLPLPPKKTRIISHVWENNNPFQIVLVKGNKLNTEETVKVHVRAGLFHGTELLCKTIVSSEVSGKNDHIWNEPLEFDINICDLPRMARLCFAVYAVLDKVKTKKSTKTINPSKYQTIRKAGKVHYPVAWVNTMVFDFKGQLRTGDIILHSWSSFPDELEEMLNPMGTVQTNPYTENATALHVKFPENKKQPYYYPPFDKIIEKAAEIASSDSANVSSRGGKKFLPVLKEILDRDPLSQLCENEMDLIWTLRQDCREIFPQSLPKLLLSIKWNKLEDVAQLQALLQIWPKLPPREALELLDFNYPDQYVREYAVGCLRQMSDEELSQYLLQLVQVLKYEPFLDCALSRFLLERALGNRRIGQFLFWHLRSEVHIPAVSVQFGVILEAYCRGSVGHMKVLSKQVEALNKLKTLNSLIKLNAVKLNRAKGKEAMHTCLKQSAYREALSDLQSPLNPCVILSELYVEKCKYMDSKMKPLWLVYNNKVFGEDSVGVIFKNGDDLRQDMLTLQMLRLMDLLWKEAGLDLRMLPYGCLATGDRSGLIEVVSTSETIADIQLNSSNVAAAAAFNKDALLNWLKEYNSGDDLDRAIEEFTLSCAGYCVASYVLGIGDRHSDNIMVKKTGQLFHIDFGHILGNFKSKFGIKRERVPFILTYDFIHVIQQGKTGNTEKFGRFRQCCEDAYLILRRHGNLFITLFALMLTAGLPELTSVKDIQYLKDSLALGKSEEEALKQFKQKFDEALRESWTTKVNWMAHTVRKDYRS
Sequence of p110β (P27986 whole entry partner, canonical isoform): as the sequence (P27986 whole entry partner) above
T2 sequence (O00329 whole entry): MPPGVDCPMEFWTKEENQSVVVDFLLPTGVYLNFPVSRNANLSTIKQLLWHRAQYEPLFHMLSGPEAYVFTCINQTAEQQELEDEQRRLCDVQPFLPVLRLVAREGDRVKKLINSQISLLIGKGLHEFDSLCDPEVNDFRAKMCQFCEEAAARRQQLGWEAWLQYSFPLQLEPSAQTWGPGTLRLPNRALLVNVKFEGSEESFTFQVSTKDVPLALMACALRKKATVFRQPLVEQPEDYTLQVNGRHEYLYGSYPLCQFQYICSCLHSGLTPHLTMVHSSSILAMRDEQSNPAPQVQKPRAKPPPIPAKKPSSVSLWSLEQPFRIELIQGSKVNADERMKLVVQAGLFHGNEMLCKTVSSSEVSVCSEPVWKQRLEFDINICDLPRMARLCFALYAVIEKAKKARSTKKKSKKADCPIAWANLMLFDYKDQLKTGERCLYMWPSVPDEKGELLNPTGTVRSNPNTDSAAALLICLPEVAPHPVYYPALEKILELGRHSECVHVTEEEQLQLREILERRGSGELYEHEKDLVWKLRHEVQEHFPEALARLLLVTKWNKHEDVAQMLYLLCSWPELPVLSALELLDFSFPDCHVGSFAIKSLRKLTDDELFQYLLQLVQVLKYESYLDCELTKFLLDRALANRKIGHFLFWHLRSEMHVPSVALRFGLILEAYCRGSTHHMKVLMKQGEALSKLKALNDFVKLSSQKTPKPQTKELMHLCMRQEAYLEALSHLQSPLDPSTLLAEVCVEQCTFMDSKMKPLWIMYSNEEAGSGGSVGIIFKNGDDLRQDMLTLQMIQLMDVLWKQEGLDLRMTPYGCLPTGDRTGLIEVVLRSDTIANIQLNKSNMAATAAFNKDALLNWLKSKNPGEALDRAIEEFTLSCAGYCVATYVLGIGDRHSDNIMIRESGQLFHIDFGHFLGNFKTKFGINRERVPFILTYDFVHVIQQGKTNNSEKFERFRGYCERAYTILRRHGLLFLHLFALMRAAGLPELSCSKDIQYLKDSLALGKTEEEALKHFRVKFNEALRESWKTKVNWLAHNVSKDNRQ
T2 sequence (P27986 whole entry partner): as the sequence (P27986 whole entry partner) above
T1 sequence (P48736 whole entry): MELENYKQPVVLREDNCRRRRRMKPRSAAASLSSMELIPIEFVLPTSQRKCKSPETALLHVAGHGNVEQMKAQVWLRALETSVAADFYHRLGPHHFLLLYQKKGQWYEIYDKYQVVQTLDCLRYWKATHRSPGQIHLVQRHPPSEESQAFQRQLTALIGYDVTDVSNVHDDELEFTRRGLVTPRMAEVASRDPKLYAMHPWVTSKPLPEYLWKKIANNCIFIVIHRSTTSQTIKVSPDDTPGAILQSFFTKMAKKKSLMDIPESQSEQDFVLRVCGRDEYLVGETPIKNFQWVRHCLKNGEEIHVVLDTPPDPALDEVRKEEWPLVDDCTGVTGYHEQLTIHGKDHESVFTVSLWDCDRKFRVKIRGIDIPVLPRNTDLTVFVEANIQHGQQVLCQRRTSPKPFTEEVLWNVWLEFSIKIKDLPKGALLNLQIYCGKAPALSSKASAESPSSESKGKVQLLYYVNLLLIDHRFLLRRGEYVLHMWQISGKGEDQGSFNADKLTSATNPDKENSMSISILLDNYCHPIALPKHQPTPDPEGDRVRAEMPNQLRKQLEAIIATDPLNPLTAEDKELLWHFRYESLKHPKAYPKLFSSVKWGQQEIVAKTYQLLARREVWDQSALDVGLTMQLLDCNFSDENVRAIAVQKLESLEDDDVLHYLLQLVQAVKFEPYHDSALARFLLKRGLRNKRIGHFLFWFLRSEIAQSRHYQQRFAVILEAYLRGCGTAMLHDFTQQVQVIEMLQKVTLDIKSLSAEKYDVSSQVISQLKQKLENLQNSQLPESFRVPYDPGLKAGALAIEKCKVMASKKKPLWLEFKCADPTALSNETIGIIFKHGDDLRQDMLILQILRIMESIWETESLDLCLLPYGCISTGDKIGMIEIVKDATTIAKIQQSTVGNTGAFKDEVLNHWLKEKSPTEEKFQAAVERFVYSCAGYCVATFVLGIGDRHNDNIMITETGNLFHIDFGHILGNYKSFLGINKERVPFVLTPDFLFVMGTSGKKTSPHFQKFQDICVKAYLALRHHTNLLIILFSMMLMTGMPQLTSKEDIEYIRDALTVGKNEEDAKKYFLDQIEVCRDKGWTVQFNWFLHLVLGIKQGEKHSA

SMILES | effect on p-ERK1/2 ([1]; αIgM + IL-4) | effect on p-AKT signaling ([2]; αIgM + IL-4, 100 nM, 300 nM, 1 µM) | IC50 (p110γ [3]) | concentration with significant reduction of p-ERK1/2 ([1]; αIgM + IL-4, 1 h stimulation) | concentration with significant reduction of p-AKT ([2]; αIgM + IL-4, 30 min pretreatment, 1 h stimulation) | IC50 (p110γ [4]) | IC50 (p110δ) | IC50 (p110α) | IC50 (p110β)
O=C1NC(=O)/C(=C/c2ccc(-c3ccc(F)cc3O)o2)S1 [AS-252424, reference compound] | no significant effect | no significant effect | 0.03 µM |  |  |  |  |  | 
CC(C)n1c([C@H](C)Nc2ncnc(N)c2C#N)cc2cccc(-c3ccc(=O)n(C)c3)c2c1=O [IPI-3063] |  |  |  | 10 nM | 1 nM | 2.19 µM | 0.0025 ± 0.0012 µM | 1.17 µM | 0.103 ± 0.0357 µM
